Measured values from the supplement of paper PMC10307832.

Key:
Test in all cases: relative viability (nuclei count vs DMSO), 5 days (fraction); higher = more cells survive
[1] = compound: C1/C(=C\C2=CC=CS2)/C(=O)/C(=C/C3=CC=CS3)/C1
Summary of the method: (§1)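 Viability was defined as treated-well nuclei divided by vehicle-well nuclei, with the median taken over replicate plates. Cells from lung cancer lines sat overnight at 37 °C in 1536-well plates, received five √10-spaced library-drug doses by pinning on vehicle-anchored plates, and grew 5 days without medium change before one-step fixation, permeabilisation and Hoechst staining, 4× imaging and MetaXpress nuclear counts. Only plates with control CV under 25% and at least one doubling were kept.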

[2] = compound: C1=CC(=CC=C1C2=CC(=C(S2)NC(=O)N)C(=O)N)F [TPCA-1]
Summary of the method: as §1

[3] = compound: C[C@]12O[C@H](C[C@]1(O)CO)n1c3ccccc3c3c4c(c5c6ccccc6n2c5c31)CNC4=O [Lestaurtinib]
Summary of the method: as §1

Row | Cell Line | relative viability ([1]; 0.2 µM) | relative viability ([1]; 0.6325 µM) | relative viability ([1]; 2 µM) | relative viability ([1]; 6.325 µM) | relative viability ([1]; 20 µM) | relative viability ([2]; 0.04 µM) | relative viability ([2]; 0.1265 µM) | relative viability ([2]; 0.4 µM) | relative viability ([2]; 1.265 µM) | relative viability ([2]; 4 µM) | relative viability ([3]; 0.005 µM) | relative viability ([3]; 0.01581 µM) | relative viability ([3]; 0.05 µM) | relative viability ([3]; 0.1581 µM) | relative viability ([3]; 0.5 µM)
1 | IA-LM | 1.04 | 1.01 | 0.905 | 0.91 | 0.94 | 1.1 | 0.923 | 0.963 | 0.812 | 0.903 | 1.11 | 1.42 | 1.28 | 1.21 | 0.557
2 | LC-2-ad | 1.02 | 1.04 | 1.07 | 0.868 | 0.958 | 1.09 | 0.902 | 1.01 | 0.901 | 0.377 | 1.01 | 1.15 | 0.757 | 0.54 | 0.301
3 | LCLC-97TM1 | 1.07 | 0.966 | 1.2 | 0.868 | 0.852 | 1.17 | 0.886 | 0.994 | 0.613 | 0.538 | 0.702 | 1.15 | 0.739 | 0.398 | 0.267
4 | LCLC-103H | 1.04 | 1.02 | 1.09 | 0.87 | 0.986 | 1.1 | 0.933 | 1.06 | 0.941 | 1.02 | 1.1 | 1.08 | 0.937 | 0.693 | 0.519
5 | LK-2 | 1.02 | 1 | 1.1 | 1.06 | 0.966 | 1.24 | 0.8 | 0.993 | 0.982 | 0.503 | 1.24 | 1.06 | 0.872 | 0.651 | 0.279
6 | LOU-NH91 | 1.02 | 0.991 | 1.09 | 0.874 | 1.02 | 1.05 | 0.943 | 0.981 | 0.878 | 0.851 | 0.946 | 1 | 0.865 | 0.65 | 0.423
7 | LU99A | 1 | 0.966 | 1.02 | 0.788 | 0.892 | 1.1 | 0.909 | 0.989 | 0.919 | 0.437 | 0.892 | 0.893 | 0.625 | 0.489 | 0.251
8 | LXF-289 | 1.03 | 1.03 | 1.02 | 0.902 | 0.991 | 1 | 0.934 | 0.954 | 0.953 | 0.69 | 0.963 | 1.02 | 0.93 | 0.901 | 0.315
9 | NCI-H23 | 1.13 | 1.21 | 1.11 | 0.798 | 0.962 | 1.1 | 0.846 | 0.956 | 0.782 | 0.231 | 0.999 | 1.1 | 0.817 | 0.594 | 0.378
10 | NCI-H322M | 0.928 | 0.924 | 1.01 | 0.804 | 0.912 | 1.11 | 0.885 | 1.03 | 1.13 | 0.704 | 0.904 | 0.924 | 0.497 | 0.663 | 0.624
11 | NCI-H358 | 1.09 | 0.915 | 0.963 | 0.754 | 0.933 | 1.34 | 0.832 | 0.984 | 0.767 | 0.401 | 0.839 | 0.748 | 0.493 | 0.397 | 0.207
12 | NCI-H441 | 1.14 | 1.24 | 1.14 | 0.867 | 0.995 | 1.22 | 0.816 | 0.882 | 0.704 | 0.425 | 1.02 | 1.05 | 0.611 | 0.61 | 0.438
13 | NCI-H460 | 1.05 | 1.01 | 1.05 | 0.823 | 0.971 | 1.03 | 0.984 | 1.01 | 1.04 | 0.889 | 1.08 | 1.09 | 1.04 | 1.08 | 0.836
14 | NCI-H520 | 1.04 | 1.13 | 1.12 | 0.969 | 0.886 | 1.16 | 0.835 | 0.941 | 1.1 | 0.371 | 1.13 | 1.07 | 0.789 | 0.524 | 0.292
15 | NCI-H522 | 1.12 | 0.967 | 1.06 | 0.978 | 0.922 | 0.928 | 0.916 | 1.18 | 1.07 | 0.844 | 1.03 | 0.963 | 0.877 | 0.877 | 0.604
16 | NCI-H596 | 1 | 0.994 | 1.11 | 0.85 | 0.964 | 1.09 | 0.978 | 1.05 | 1.17 | 0.842 | 1.02 | 0.889 | 0.872 | 1.06 | 1.02
17 | NCI-H647 | 1.01 | 1.01 | 1.02 | 0.84 | 0.85 | 0.972 | 0.818 | 1.07 | 0.867 | 0.48 | 0.918 | 0.988 | 0.513 | 0.407 | 0.172
18 | NCI-H650 | 0.973 | 0.885 | 0.956 | 0.984 | 0.906 | 1.03 | 0.823 | 0.946 | 0.488 | 0.557 | 0.953 | 1.03 | 0.844 | 0.46 | 0.403
19 | NCI-H661 | 1.05 | 1.03 | 0.998 | 0.903 | 0.985 | 0.963 | 0.858 | 0.983 | 0.961 | 0.7 | 1.01 | 0.972 | 0.964 | 0.935 | 0.439
20 | NCI-H727 | 1.09 | 0.887 | 1.02 | 0.709 | 0.954 | 0.939 | 0.86 | 0.961 | 0.78 | 0.734 | 1.07 | 1.21 | 1.03 | 0.787 | 0.476
21 | NCI-H838 | 0.97 | 0.981 | 1.04 | 0.79 | 0.904 | 1.04 | 0.863 | 0.967 | 0.755 | 0.739 | 1 | 0.986 | 0.811 | 0.58 | 0.193
22 | NCI-H1299 | 0.993 | 1.04 | 0.963 | 0.859 | 0.997 | 1.03 | 0.977 | 0.991 | 1.01 | 1.07 | 1.03 | 1.02 | 0.762 | 0.799 | 0.727
23 | NCI-H1355 | 1 | 0.967 | 0.995 | 0.833 | 0.963 | 1.09 | 0.89 | 0.94 | 0.859 | 0.751 | 1.07 | 1.01 | 0.777 | 0.582 | 0.508
